Laboratory results from ChEMBL document CHEMBL1127754, “Design and synthesis of seco-oxysterol analogs as potential inhibitors of 3-hydroxy-3-methylglutaryl-coenzyme A (HMG-CoA) reductase gene transcription” (J Med Chem, 1994).

Columns and labels:
Format in all cases: cell-based
[1] = target: T1, 3-hydroxy-3-methylglutaryl-coenzyme A reductase (Homo sapiens) (UniProt P04035); experiment: Tested for the percent inhibition against HMG-CoA reductase transcription in HepG2 cells; set-up: concentration or dose not given beside the values; details: concentration not given here
T1 sequence (whole entry): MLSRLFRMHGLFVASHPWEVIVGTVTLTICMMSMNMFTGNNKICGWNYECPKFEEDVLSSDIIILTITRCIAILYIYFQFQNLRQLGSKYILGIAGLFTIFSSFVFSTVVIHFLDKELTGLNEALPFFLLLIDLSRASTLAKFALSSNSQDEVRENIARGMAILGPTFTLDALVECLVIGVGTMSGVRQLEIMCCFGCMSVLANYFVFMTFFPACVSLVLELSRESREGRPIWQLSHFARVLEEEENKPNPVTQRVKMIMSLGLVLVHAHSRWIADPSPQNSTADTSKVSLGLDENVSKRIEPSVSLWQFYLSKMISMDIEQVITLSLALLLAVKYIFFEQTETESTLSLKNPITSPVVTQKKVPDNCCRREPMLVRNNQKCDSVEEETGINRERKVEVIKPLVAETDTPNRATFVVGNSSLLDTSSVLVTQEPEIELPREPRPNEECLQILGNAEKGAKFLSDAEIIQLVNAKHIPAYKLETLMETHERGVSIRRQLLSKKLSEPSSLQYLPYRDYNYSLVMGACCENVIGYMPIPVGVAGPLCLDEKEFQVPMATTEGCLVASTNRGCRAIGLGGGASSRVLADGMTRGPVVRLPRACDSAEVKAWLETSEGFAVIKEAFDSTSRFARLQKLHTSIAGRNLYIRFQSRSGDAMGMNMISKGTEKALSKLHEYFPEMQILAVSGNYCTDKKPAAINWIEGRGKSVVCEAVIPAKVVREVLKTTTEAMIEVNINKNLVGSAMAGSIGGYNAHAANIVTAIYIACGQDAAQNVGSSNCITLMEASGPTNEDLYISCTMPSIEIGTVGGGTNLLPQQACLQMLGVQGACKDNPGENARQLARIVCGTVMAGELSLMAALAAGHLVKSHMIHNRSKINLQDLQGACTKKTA

[2] = target: T1, 3-hydroxy-3-methylglutaryl-coenzyme A reductase (Homo sapiens); experiment: Tested for its percent inhibition against HMG-CoA reductase transcription in HepG2 cells in HMG-CoA reductase m-RNA assay; details: concentration not given here
[3] = target: T2, 3-hydroxy-3-methylglutaryl-coenzyme A reductase (Homo sapiens, UniProt P04035); experiment: Tested for its inhibitory activity against HMG-CoA reductase transcription in HepG2 cells
T2 sequence (P04035 whole entry): T1 sequence (whole entry)

[4] = target: T1, 3-hydroxy-3-methylglutaryl-coenzyme A reductase (Homo sapiens); experiment: Tested for its percent inhibition against HMG-CoA reductase transcription in HepG2 cells in HMG-CoA reductase assay; details: concentration not given here
[5] = target: T1, 3-hydroxy-3-methylglutaryl-coenzyme A reductase (Homo sapiens); experiment: Tested for its percent inhibition against HMG-CoA reductase transcription in HepG2 cells in LDL-receptor binding assay; details: concentration not given here

Compound	inhibition [1]	also measured
CC(C)(O)CCCC[C@H]1CC[C@@H](CC[C@]2(C)CC[C@@H](O)CC2)C1	0%	
CC(C)(O)CCCCc1ccc(/C=C/[C@]2(C)CC[C@@H](O)CC2)cc1	0%	
CC(C)(O)CCCCc1cccc(CC[C@]2(C)CC[C@@H](O)CC2)c1	29.3%	
CC(C)(O)CCCCc1cccc(/C=C/[C@]2(C)CC[C@@H](O)CC2)c1	46.3%	inhibition [2]: 72.7%; IC50 [3]: 10 µM; inhibition [4]: 29.7%
CC(C)(O)CCCC[C@H]1CC[C@@H](/C=C/[C@]2(C)CC[C@@H](O)CC2)C1 (stereo in doubt; 28)	0%	
CC(C)(O)CCCCc1ccc(CC[C@]2(C)CC[C@@H](O)CC2)cc1	0%	
CC(C)CCCC[C@@H]1C[C@H](/C=C/[C@]2(C)CC[C@@H](O)CC2)[C@@H](O)[C@H]1O (stereo in doubt; 37)	0%	
C[C@H](CCCC(C)(C)O)[C@H]1CC[C@H]2[C@@H]3CC=C4C[C@@H](O)CC[C@]4(C)[C@H]3CC[C@]12C	70%	inhibition [2]: 58.2%; IC50 [3]: 0.3 µM; inhibition [5]: 64%; inhibition [4]: 48.4%
CC(C)(O)CCCC[C@H]1CC[C@@H](/C=C/[C@]2(C)CC[C@@H](O)CC2)C1 (stereo in doubt; 6)	0%	
CC(C)CCCC[C@@H]1C[C@H](/C=C/[C@]2(C)CC[C@@H](O)CC2)[C@@H](O)[C@H]1O (stereo in doubt; 7)	0%	
